Read-outs that look alike come from different tables or passages of the source.
What was measured:
kidney = assay: Kidney tissue cultured ex vivo (quinone levels, fumarate reduction); set-up: species or system mouse; conditions: kidney cultured ex vivo for 96 hours, reduced rhodoquinone levels; succinate oxidation not affected
Description: Ex vivo stable isotope tracing on tissues: Tissues were excised from mice and washed in 1×PBS. Tissues were then cut into small pieces and placed in the appropriate stable isotope tracing media. Stable isotope tracing media contained either ^13C5^15N2-glutamine (Sigma) or 13C4-aspartate (Sigma) dissolved in DMEM, 5% FBS, 1% P/S. For ex vivo tracing experiments performed on the brain, the same media was used without FBS. Tissues were incubated for the designated time at 37° C. in a normal or hypoxia tissue culture incubator. Tissues were removed from the media, washed with PBS, and flash frozen in liquid nitrogen. Samples could be stored at −80° C. until metabolites were isolated.
Rhodoquinone-9 is a previously unknown mammalian metabolite. Without wishing to be bound by any particular theory, it is believed that since the level of rhodoquinone-9 decreases overtime when the kidney is cultured ex vivo, that cultured media is missing a component of the rhodoquinone biosynthetic pathway, and that this component may be coming from the gut microbiome.

[1] = system: kidney derived cancer cell line; assay: Western blot of kidney derived cancer cell line cultured in hypoxia (NRF2, PDH phosphorylation); type: cell-based; conditions: hypoxia for 5 days
Description: This includes NRF2 accumulation, which is a sensor of oxidative stress, and phosphorylation on PDH, which is a marker of AMPK activation. AMPK senses AMP, and is hyperactive when cells have “low energy”
Western Blots: Adherent cells were lysed in RIPA buffer (150 mM NaCl, 50 mM Tris-HCl, pH 7.5, 0.1% SDS, 1% Triton-X 100 (Sigma), 0.5% deoxycholate (Sigma), complete EDTA-free protease inhibitor (Sigma)) and clarified by centrifugation. Protein content was quantified using a Pierce BCA Protein Assay Kit (Life Technologies) and 30-50 μg protein were loaded on 12% Tris-Glycine Novex Gels (Invitrogen). Proteins were subsequently transferred to a 0.45 μm PVDF membrane (Sigma). Primary antibodies were used at the following dilutions in 5% BSA:SDHA (Proteintech; 1:1000), NDUFV1 (Abcam; 1:1000), Total OXPHOS Rodent WB Antibody Cocktail-containing UQCRC2, SDHB, and ATP5A (Abcam; 1:1000), COX IV (Cell Signaling Technology; 1:1000), MT-ND5 (Abcam; 1:1000), FLAG (Sigma; 1:1000), HIF1a (Cell Signaling Technology; 1:1000), ATP citrate lyase (Abcam; 1:1000), Citrate Synthase (Cell Signaling; 1:1000). Secondary antibodies were used at the following dilutions in 5% Milk:Anti-rabbit IgG HRP-linked Antibody (1:5000, Cell Signaling Technology), Anti-mouse IgG HRP-linked Antibody (1:5000, Cell Signaling Technology). […]

[2] = system: mitochondrial membrane potential; assay: Mitochondrial membrane potential (TMRE dye); type: cell-based, human
Description: Live Cell Imaging: 143B cells were seeded at 50% density in 6-well dishes 24 hours prior to the experiment. Cells were pre-incubated with 500 nM TMRE dye for 30 minutes and then imaging on a Nikon TE2000 inverted microscope was started. Images were taken at 1 minute intervals over the course of an hour in the mCherry channel while the plate was incubated in a chamber maintaining a temperature of 37° C. and 5% CO2.
Flow Cytometry: Cells were seeded 24 hours prior to the experiment at 50% density. On the day of the experiment, the cells were treated for the designated time with inhibitors. 30 minutes prior to the end of the incubation, 500 nM TMRE dye was added to the wells. Following incubation cells were washed, trypsinized, and filtered through a cell strainer prior to sorting. Fluorescence-activated cell sorting was performed on a LSR-II sorter, in which the fluorescence intensity of individual cells was quantified in the PE channel. Data were analyzed using FlowJo software (TreeStar).

143B cells = assay: Polar metabolite profiling (succinate level); type: cell-based, human; conditions: 500 nM antimycin 8 hours
Description: Isolation of metabolites from adherent cells: To isolate metabolites, media was removed, cells were washed 2 times with ice cold 1×PBS, and wells were covered in LC-MS grade 80:20 Methanol:Water (ThermoFisher). Plates were scraped on dry ice and lysates were collected into eppendorf tubes. Lysates were vortexed for 10 minutes at 4° C. and centrifuged at 16,000×g for 10 minutes at 4° C. Supernatants were immediately dried down in a Refrigerated CentriVap Benchtop Vacuum Concentrator connected to a CentriVap-105 Cold Trap (Labconco). Dried pellets were stored at −80° C. until they were run on LC-MS.
Liquid Chromatography and Mass Spectrometry (polar): A QExactive bench top orbitrap mass spectrometer equipped with an Ion Max source and a HESI II probe coupled to a Dionex UltiMate 3000 HPLC system (Thermo Fisher Scientific) was used to perform all LC-MS experiments. The instrument underwent mass calibration using the standard calibration mixture every 7 days. 2 μL of re-suspended polar metabolite samples were injected onto a SeQuant ZIC-pHILIC 5 μm 150×2.1 mm analytical column equipped with a 2.1×20 mm guard column (MilliporeSigma). The column oven was held at 25° C. and the autosampler tray was held at 4° C. Buffer A was comprised of 20 mM ammonium carbonate, 0.1% ammonium hydroxide. Buffer B was comprised of 100% acetonitrile. […]

complex I = assay: NAD+/NADH ratio in cells; type: cell-based, human; conditions: SDHB-null cells treated with antimycin versus wild-type cells treated with antimycin
Description: Next, fumarate reduction was tested to determine if it sustains complex I activity in cells incapable of using O2 as a terminal electron acceptor. Both the NAD+/NADH ratio, which is an indicator of complex I-mediated NADH reoxidation, and the mitochondrial membrane potential (ΔΨ^Mito) to which complex I contributes via proton pumping. […] Thus, fumarate reduction supports partial complex I activity, specifically NADH reoxidation and ΔΨ^Mito, in cells incapable of reducing O2 in the ETC.

DHODH = DHODH (Homo sapiens, UniProt Q02127); conditions: for de novo UTP biosynthesis (13C3-UTP generation, DHODH activity): wild-type 143B cells, 13C4-aspartate tracing 8 hours, 500 nM antimycin, 2 μM brequinar
Sequence of DHODH (Q02127 whole entry): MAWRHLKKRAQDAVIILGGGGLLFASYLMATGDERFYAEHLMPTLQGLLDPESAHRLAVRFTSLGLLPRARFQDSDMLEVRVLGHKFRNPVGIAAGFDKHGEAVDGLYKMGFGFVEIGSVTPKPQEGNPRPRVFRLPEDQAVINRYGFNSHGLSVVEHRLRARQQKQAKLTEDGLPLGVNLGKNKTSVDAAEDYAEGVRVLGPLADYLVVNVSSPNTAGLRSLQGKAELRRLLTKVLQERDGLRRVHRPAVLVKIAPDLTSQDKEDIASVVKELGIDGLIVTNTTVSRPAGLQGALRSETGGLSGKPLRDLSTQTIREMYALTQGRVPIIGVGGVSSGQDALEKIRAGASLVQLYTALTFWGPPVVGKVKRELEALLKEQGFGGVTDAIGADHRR
Description: Stable isotope tracing in cells: Cells were seeded 24 hours prior to the experiment in 6-well dishes at 70% density. For stable isotope tracing of glutamine, glutamine-free DMEM (ThermoFisher) was supplemented with 2 mM ^13C5^15N2-glutamine (Sigma), 1 mM pyruvate, 5% FBS, 1% P/S, 0.1 mg/mL uridine. For stable isotope tracing of aspartate, DMEM containing 5% FBS, and 1% penicillin and streptomycin, and 0.1 mg/mL uridine (Sigma) was supplemented with the designated amount of 13C4-aspartate (Sigma) and the pH adjusted to 7.4. Uridine was left out of the media for stable isotope tracing experiments measuring nucleotide biosynthesis. Unless otherwise stated, for all experiments, cells were treated for 8 hours and metabolites were isolated as described below. Relevant compounds were added at the start of the incubation periods.
Liquid Chromatography and Mass Spectrometry (polar): A QExactive bench top orbitrap mass spectrometer equipped with an Ion Max source and a HESI II probe coupled to a Dionex UltiMate 3000 HPLC system (Thermo Fisher Scientific) was used to perform all LC-MS experiments. The instrument underwent mass calibration using the standard calibration mixture every 7 days. 2 μL of re-suspended polar metabolite samples were injected onto a SeQuant ZIC-pHILIC 5 μm 150×2.1 mm analytical column equipped with a 2.1×20 mm guard column (MilliporeSigma). The column oven was held at 25° C. and the autosampler tray was held at 4° C. Buffer A was comprised of 20 mM ammonium carbonate, 0.1% ammonium hydroxide. Buffer B was comprised of 100% acetonitrile. The chromatographic gradient was run at a flow rate of 0.150 mL/min as follows: 0-20 min: linear gradient from 80-20% B; 20-20.5 min: linear gradient from 20-80% B; 20.5-28 min: hold at 80% B. The mass spectrometer was operated in full-scan, polarity-switching mode, with the spray voltage set to 3.0 kV, the heated capillary at 275° C., and the HESI probe at 350° C. The sheath gas flow was 40 units, the auxiliary gas flow was 15 units, and the sweep gas flow was 1 unit. MS data was collected in a range of m/z=70-1000. The resolution set at 70,000, the AGC target at 1×106, and the maximum injection time at 20 msec. An additional scan (m/z=220-700) was included in negative mode only to enhance detection of nucleotides.

Substance	fumarate reduction in the kidney (kidney)	oxidative and bioenergetic stresses (NRF2 accumulation, phosphorylation on PDH) [1]	mitochondrial membrane potential (ΔΨMito) ([2]; SDHB-null cells versus wild-type cells, 30 minutes of antimycin treatment)	mitochondrial membrane potential (ΔΨMito) ([2]; wild-type cells, time course after antimycin)	succinate level (143B cells)	NAD+/NADH ratio (complex I)	DHODH activity (13C3-UTP production) (DHODH)	DHODH activity (13C4-aspartate into 13C3-UTP) (DHODH; combined inhibition of complex III with antimycin and complex I with piericidin)	de novo UTP biosynthesis (13C3-UTP generation, DHODH activity) (DHODH)	de novo UTP biosynthesis (13C3-UTP generation, DHODH activity) (DHODH; listed as Antimycin)
rhodoquinone	required for ubiquitous fumarate reduction	protects against oxidative and bioenergetic stresses	–	–	–	–	–	–	–	–
antimycin	–	–	substantially more depolarized	initial reduction in the ΔΨ^Mito, which was restored to pre-treatment levels	increase	lower	ablated	no effect	did not decrease	no effect
